The values that follow are results of earlier work, collected in patent US12370233B2, “Depot systems comprising glatiramer acetate” (MAPI PHARMA LTD., priority 2016, dated 2025).

For this data set the following is noted: as reported by Rotstein et al., JAMA Neurol., 2015.

Regarding daclizumab [ZINBRYTA®], the “NEDA at one year” value is recorded as 39%. natalizumab [TYSABRI®]: the “NEDA at one year” value is 47%.
